In PubChem BioAssay (NCI):
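How tested: cells in 96-well plates exposed to compound for 48 hours at five concentrations. TGI denotes the concentration required for complete inhibition of growth.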

What was measured:
Test in all cases: NCI tumour cell line growth inhibition, 48 h
LXFL 529 NSCLC = system: LXFL 529 NSCLC
SF-539 CNS = system: SF-539 CNS
SK-MEL-28 melanoma = system: SK-MEL-28 melanoma
NCI-H522 lung = system: NCI-H522 lung
RXF 393 renal = system: RXF 393 renal
IGROV1 ovarian = system: IGROV1 ovarian
MOLT-4 leukemia = system: MOLT-4 leukemia
SK-MEL-5 melanoma = system: SK-MEL-5 melanoma
RXF-631 renal = system: RXF-631 renal
DMS 114 small cell lung = system: DMS 114 small cell lung
786-0 renal = system: 786-0 renal
HT29 colon = system: HT29 colon
SNB-19 CNS = system: SNB-19 CNS
RPMI-8226 leukemia = system: RPMI-8226 leukemia
MALME-3M melanoma = system: MALME-3M melanoma
OVCAR-8 ovarian = system: OVCAR-8 ovarian
NCI-H460 lung = system: NCI-H460 lung
M19-MEL melanoma = system: M19-MEL melanoma
SW-620 colon = system: SW-620 colon
UACC-257 melanoma = system: UACC-257 melanoma
OVCAR-3 ovarian = system: OVCAR-3 ovarian
ACHN renal = system: ACHN renal
SN12C renal = system: SN12C renal
CCRF-CEM leukemia = system: CCRF-CEM leukemia
OVCAR-5 ovarian = system: OVCAR-5 ovarian
KM20L2 colon = system: KM20L2 colon
U251 CNS = system: U251 CNS
SNB-75 CNS = system: SNB-75 CNS
KM12 colon = system: KM12 colon
SR leukemia = system: SR leukemia
DMS 273 small cell lung = system: DMS 273 small cell lung
DLD-1 colon = system: DLD-1 colon
HOP-62 NSCLC = system: HOP-62 NSCLC
HCC-2998 colon = system: HCC-2998 colon
HCT-15 colon = system: HCT-15 colon
NCI-H23 lung = system: NCI-H23 lung
K-562 leukemia = system: K-562 leukemia
UACC-62 melanoma = system: UACC-62 melanoma
COLO 205 colon = system: COLO 205 colon
HOP-18 NSCLC = system: HOP-18 NSCLC
HCT-116 colon = system: HCT-116 colon
SNB-78 CNS = system: SNB-78 CNS
SK-MEL-2 melanoma = system: SK-MEL-2 melanoma
SF-295 CNS = system: SF-295 CNS
LOX IMVI melanoma = system: LOX IMVI melanoma
M14 melanoma = system: M14 melanoma
NCI-H226 lung = system: NCI-H226 lung
EKVX NSCLC = system: EKVX NSCLC
HOP-92 NSCLC = system: HOP-92 NSCLC
UO-31 renal = system: UO-31 renal
XF 498 CNS = system: XF 498 CNS
HL-60(TB) leukemia = system: HL-60(TB) leukemia
OVCAR-4 ovarian = system: OVCAR-4 ovarian
TK-10 renal = system: TK-10 renal
A549 NSCLC = system: A549 NSCLC
SK-OV-3 ovarian = system: SK-OV-3 ovarian
CAKI-1 renal = system: CAKI-1 renal
A498 renal = system: A498 renal
SF-268 CNS = system: SF-268 CNS

## CCCCCCCCCCCCCCCCP(=O)(OC)OC
LXFL 529 NSCLC
  TGI: 29.3 µM
SF-539 CNS
  TGI: 34.9 µM
SK-MEL-28 melanoma
  TGI: 31.6 µM
NCI-H522 lung
  TGI: 26.8 µM
RXF 393 renal
  TGI: 34.4 µM
IGROV1 ovarian
  TGI: 34.6 µM
MOLT-4 leukemia
  TGI: 32.3 µM
SK-MEL-5 melanoma
  TGI: 30.7 µM
RXF-631 renal
  TGI: 31.3 µM
DMS 114 small cell lung
  TGI: 30.5 µM
786-0 renal
  TGI: 31.4 µM
HT29 colon
  TGI: 31.6 µM
SNB-19 CNS
  TGI: 28.6 µM
RPMI-8226 leukemia
  TGI: 35 µM
MALME-3M melanoma
  TGI: 32.7 µM
OVCAR-8 ovarian
  TGI: 30.9 µM
NCI-H460 lung
  TGI: 31.1 µM
M19-MEL melanoma
  TGI: 30.3 µM
SW-620 colon
  TGI: 28.2 µM
UACC-257 melanoma
  TGI: 31.8 µM
OVCAR-3 ovarian
  TGI: 31.9 µM
ACHN renal
  TGI: 28 µM
SN12C renal
  TGI: 31.3 µM
CCRF-CEM leukemia
  TGI: 40.1 µM
OVCAR-5 ovarian
  TGI: 27.1 µM
KM20L2 colon
  TGI: 37.4 µM
U251 CNS
  TGI: 32.4 µM
SNB-75 CNS
  TGI: 32 µM
KM12 colon
  TGI: 32.2 µM
SR leukemia
  TGI: 37.9 µM
DMS 273 small cell lung
  TGI: 27.6 µM
DLD-1 colon
  TGI: 31.4 µM
HOP-62 NSCLC
  TGI: 24.3 µM
HCC-2998 colon
  TGI: 30.8 µM
HCT-15 colon
  TGI: 30.2 µM
NCI-H23 lung
  TGI: 31.8 µM
K-562 leukemia
  TGI: 44.8 µM
UACC-62 melanoma
  TGI: 27.8 µM
COLO 205 colon
  TGI: 30.7 µM
HOP-18 NSCLC
  TGI: 28.6 µM
HCT-116 colon
  TGI: 33.1 µM
SNB-78 CNS
  TGI: 34.1 µM
SK-MEL-2 melanoma
  TGI: 30 µM
SF-295 CNS
  TGI: 32.4 µM
LOX IMVI melanoma
  TGI: 31.9 µM
M14 melanoma
  TGI: 30.2 µM
NCI-H226 lung
  TGI: 33.2 µM
EKVX NSCLC
  TGI: 30 µM
HOP-92 NSCLC
  TGI: 35.3 µM
UO-31 renal
  TGI: 24.5 µM
XF 498 CNS
  TGI: 25.8 µM
HL-60(TB) leukemia
  TGI: 27.3 µM
OVCAR-4 ovarian
  TGI: 35.9 µM
TK-10 renal
  TGI: 31 µM
A549 NSCLC
  TGI: 33.4 µM
SK-OV-3 ovarian
  TGI: 29 µM
CAKI-1 renal
  TGI: 30.5 µM

## C/C(=N\N(C)C)C(CN1CCCCC1)C(c1ccccc1)c1c(O)c2ccccc2oc1=O (centres undefined)
LXFL 529 NSCLC
  TGI: > 100 µM
SF-539 CNS
  TGI: > 100 µM
SK-MEL-28 melanoma
  TGI: > 100 µM
NCI-H522 lung
  TGI: > 100 µM
RXF 393 renal
  TGI: > 100 µM
IGROV1 ovarian
  TGI: > 100 µM
MOLT-4 leukemia
  TGI: > 100 µM
SK-MEL-5 melanoma
  TGI: > 100 µM
RXF-631 renal
  TGI: > 100 µM
DMS 114 small cell lung
  TGI: > 100 µM
786-0 renal
  TGI: > 100 µM
HT29 colon
  TGI: > 100 µM
SNB-19 CNS
  TGI: > 100 µM
RPMI-8226 leukemia
  TGI: > 100 µM
MALME-3M melanoma
  TGI: > 100 µM
OVCAR-8 ovarian
  TGI: > 100 µM
NCI-H460 lung
  TGI: > 100 µM
M19-MEL melanoma
  TGI: > 100 µM
SW-620 colon
  TGI: > 100 µM
UACC-257 melanoma
  TGI: > 100 µM
OVCAR-3 ovarian
  TGI: > 100 µM
ACHN renal
  TGI: > 100 µM
SN12C renal
  TGI: > 100 µM
CCRF-CEM leukemia
  TGI: > 100 µM
A498 renal
  TGI: > 100 µM
OVCAR-5 ovarian
  TGI: > 100 µM
KM20L2 colon
  TGI: > 100 µM
SF-268 CNS
  TGI: > 100 µM
U251 CNS
  TGI: > 100 µM
SNB-75 CNS
  TGI: > 100 µM
KM12 colon
  TGI: > 100 µM
SR leukemia
  TGI: > 100 µM
DMS 273 small cell lung
  TGI: > 100 µM
DLD-1 colon
  TGI: > 100 µM
HOP-62 NSCLC
  TGI: > 100 µM
HCT-15 colon
  TGI: > 100 µM
NCI-H23 lung
  TGI: > 100 µM
K-562 leukemia
  TGI: > 100 µM
UACC-62 melanoma
  TGI: > 100 µM
COLO 205 colon
  TGI: > 100 µM
HOP-18 NSCLC
  TGI: > 100 µM
HCT-116 colon
  TGI: > 100 µM
SNB-78 CNS
  TGI: > 100 µM
SK-MEL-2 melanoma
  TGI: > 100 µM
SF-295 CNS
  TGI: > 100 µM
LOX IMVI melanoma
  TGI: > 100 µM
M14 melanoma
  TGI: > 100 µM
NCI-H226 lung
  TGI: > 100 µM
EKVX NSCLC
  TGI: > 100 µM
UO-31 renal
  TGI: > 100 µM
XF 498 CNS
  TGI: > 100 µM
HL-60(TB) leukemia
  TGI: > 100 µM
OVCAR-4 ovarian
  TGI: > 100 µM
TK-10 renal
  TGI: > 100 µM
A549 NSCLC
  TGI: > 100 µM
SK-OV-3 ovarian
  TGI: > 100 µM
CAKI-1 renal
  TGI: > 100 µM
